{"source": "paper PMC6379965", "about": "“Expression and activity of the calcitonin receptor family in a sample of primary human high-grade gliomas” (BMC Cancer, 2019)", "key": {"[1]": {"system": "human prostate cancer cell line PC3", "details": "ref [14], [15]; cited from earlier work", "excerpt": "(§1) Research on the role of CTR expression in cancer has been fragmentary and any role for CTR in cancer pathology seems to be entirely dependent on the cancer type. For instance, in human breast cancer model cell lines with high constitutive ERK (Extracellular Signal Regula ..."}, "[2]": {"system": "MDA-MB-231 xenograft tumours", "details": "ref [13]; cited from earlier work", "excerpt": "as §1"}, "PB1 cell line [3]": {"system": "PB1 cell line", "experiment": "Ca2+ mobilization, PB1", "assay_type": "cell-based, human", "details": "Fluo4-AM, FlexStation, 37 °C, pH 7.4, peak RFU, ATP 10 μM, ionomycin 1 μM, representative experiment, 3 replicates", "description": "(§4) Primary patient high-grade glioma (HGG) cell lines, in vitro surrogates of glioblastoma, were developed by QIMR-Berghofer Medical Research Institute (Brisbane, Australia) and represent 3 distinct GBM subtypes: SB2b and PB1 (classical), JK2 (proneural) and WK1(mesenchymal) [37], who supplied these directly for this study. GBM cell lines were cultured as adherent monolayers on matrigel (BD Biosciences)-coated flasks using StemPro NSC SFM serum free cell culture medium (Thermo Fisher Scientific) supplemented with 20 ng/ml EGF and 20 ng/ml FGFb, 1% D-glutamine and 1% of penicillin/ streptomycin (further referred as StemPro complete medium).\n(§5) GBM cell lines were seeded at 38000 cells/well (SB2b) or 35,000 cells/well (PB1 and WK1) in 96-well matrigel-coated plates and incubated for 24 h at 37 °C, 5% CO2 in humidified incubator in StemPro complete medium. […] Cells were incubated at 37°C for 60 min before ligand addition and detection of Ca^2+ mobilisation in a FlexStation 3 (Molecular Devices)."}, "JK2 cell line": {"system": "JK2 cell line", "experiment": "cAMP accumulation, CTR agonists, JK2", "assay_type": "cell-based, human", "details": "30 min, 3 to 5 independent experiments in triplicate", "procedure": "(§2) Primary patient high-grade glioma (HGG) cell lines, in vitro surrogates of glioblastoma, were developed by QIMR-Berghofer Medical Research Institute (Brisbane, Australia) and represent 3 distinct GBM subtypes: SB2b and PB1 (classical), JK2 (proneural) and WK1(mesenchymal), who supplied these directly for this study. GBM cell lines were cultured as adherent monolayers on matrigel (BD Biosciences)-coated flasks using StemPro NSC SFM serum free cell culture medium (Thermo Fisher Scientific) supplemented with 20 ng/ml EGF and 20 ng/ml FGFb, 1% D-glutamine and 1% of penicillin/ streptomycin (further referred as StemPro complete medium). Cells were cultured in 5% CO2 / 95% humidified air at 37 °C.\n(§3) GBM cell lines were seeded at 38000 cells/well (SB2b) or 35,000 cells/well (PB1, JK2 and WK1) in 96-well matrigel-coated plates and incubated for 24 h at 37°C, 5% CO2 in humidified incubator in StemPro complete medium. Media was replaced with stimulation buffer (phenol red free F12 media, 0.1% BSA, 0.5 mM IBMX, pH 7.4). […] Cells were lysed (0.3% Tween 20, 5 mM Hepes, 0.1% BSA, pH 7.4) and 5 μl of cell lysate from each well was transferred to a corresponding well of 384-well optiplate. Intracellular cAMP levels in the wells were determined using Lance Ultra cAMP assay kit (Perkin Elmer) according to the manufacturer’s instructions and detected using an Envision multilabel 2103 reader. Raw RFU values were converted using a cAMP standard curve to give absolute cAMP concentrations. Data were analysed by three-parameter logistic curve and are presented as percentage of 10^− 5 M forskolin response."}, "[4]": {"system": "mouse thymic lymphoma models", "details": "CTR expressed as an amylin receptor, ref [18], [19]; cited from earlier work", "excerpt": "as §1"}, "WK1 cell line [5]": {"system": "WK1 cell line", "experiment": "Ca2+ mobilization, WK1", "assay_type": "cell-based, human", "details": "Fluo4-AM, FlexStation, 37 °C, pH 7.4, peak RFU, ATP 10 μM, ionomycin 1 μM, representative experiment, 3 replicates", "description": "as §4, §5"}, "SB2b cell line [6]": {"system": "SB2b cell line", "experiment": "Ca2+ mobilization, SB2b", "assay_type": "cell-based, human", "details": "Fluo4-AM, FlexStation, 37 °C, pH 7.4, peak RFU, ATP 10 μM, ionomycin 1 μM, representative experiment, 3 replicates", "description": "as §4, §5"}, "SB2b cell line [7]": {"system": "SB2b cell line", "experiment": "cAMP accumulation, αCGRP and AM, SB2b", "assay_type": "cell-based, human", "details": "30 min, 3 to 4 independent experiments in triplicate", "procedure": "as §2, with “medium).” for “medium). Cells were cultured in 5% CO2 / 95% humidified air at 37 °C.”\nas §3, with “Intracellular cAMP levels in the wells were determined using Lance Ultra cAMP assay kit (Perkin Elmer) according to the manufacturer’s instructions and detected using an Envision multilabel 2103 reader. Raw RFU values were converted using a cAMP standard curve to give absolute cAMP concentrations.” left out"}, "WK1 cell line [8]": {"system": "WK1 cell line", "experiment": "cAMP accumulation, CTR agonists, WK1", "assay_type": "cell-based, human", "details": "30 min, agonist 10^-12-10^-6 M, 3 to 5 independent experiments in triplicate", "procedure": "as §2\nGBM cell lines were seeded at 38000 cells/well (SB2b) or 35,000 cells/well (PB1, JK2 and WK1) in 96-well matrigel-coated plates and incubated for 24 h at 37°C, 5% CO2 in humidified incubator in StemPro complete medium. Media was replaced with stimulation buffer (phenol red free F12 media, 0.1% BSA, 0.5 mM IBMX, pH 7.4). […] Intracellular cAMP levels in the wells were determined using Lance Ultra cAMP assay kit (Perkin Elmer) according to the manufacturer’s instructions and detected using an Envision multilabel 2103 reader. […] Data were analysed by three-parameter logistic curve and are presented as percentage of 10^− 5 M forskolin response."}, "PB1 cell line [9]": {"system": "PB1 cell line", "experiment": "cAMP accumulation, CTR agonists, PB1", "assay_type": "cell-based, human", "details": "30 min, 3 to 5 independent experiments in triplicate", "procedure": "as §2, §3"}, "AMY3 (CTR + RAMP3)": {"system": "AMY3 (CTR + RAMP3)", "details": "receptor AMY3, CTR + RAMP3; ref [10], [11], [38]; cited from earlier work"}, "AM1 (CLR + RAMP2)": {"system": "AM1 (CLR + RAMP2)", "details": "receptor AM1, CLR + RAMP2; ref [10], [11], [38]; cited from earlier work"}, "AMY1 (CTR + RAMP1)": {"system": "AMY1 (CTR + RAMP1)", "details": "receptor AMY1, CTR + RAMP1; ref [10], [11], [38]; cited from earlier work"}, "CTR": {"system": "CTR", "details": "receptor CTR; ref [10], [11], [38]; cited from earlier work"}, "AM2 (CLR + RAMP3)": {"system": "AM2 (CLR + RAMP3)", "details": "receptor AM2, CLR + RAMP3; ref [10], [11], [38]; cited from earlier work"}, "CGRP (CLR + RAMP1)": {"system": "CGRP (CLR + RAMP1)", "details": "receptor CGRP, ref [10], [11], [38]; cited from earlier work"}}, "note": "Ends that are not written are not given here."}
{"compound": "Calcitonin (peptide) (CGNLSTCMLGTYTQDFNKFHTFPQTAIGVGAP; ends and bridges not checked; cysteine pairing not given here; UniProt P01258 85-116, looked up) [CT]", "values": [{"measurement": "apoptosis", "setting": "[1]", "result": "inhibits apoptosis"}, {"measurement": "tumour growth and invasiveness", "setting": "[1]", "result": "stimulates tumour growth and invasiveness"}, {"measurement": "growth of xenograft tumours", "setting": "[2]", "result": "inhibits the growth"}]}
{"compound": "CC(C)C[C@H](NC(=O)[C@H](CC(N)=O)NC(=O)[C@H](CC(N)=O)NC(=O)[C@H](CO)NC(=O)[C@H](CO)NC(=O)[C@H](CCCNC(=N)N)NC(=O)[C@@H](NC(=O)[C@H](CC(C)C)NC(=O)[C@H](Cc1ccccc1)NC(=O)[C@H](CC(N)=O)NC(=O)[C@H](C)NC(=O)[C@H](CC(C)C)NC(=O)[C@H](CCCNC(=N)N)NC(=O)[C@H](CCC(N)=O)NC(=O)[C@@H](NC(=O)[C@H](C)NC(=O)[C@@H]1CSSC[C@H](NC(=O)[C@@H](N)CCCCN)C(=O)N[C@@H](CC(N)=O)C(=O)N[C@@H]([C@@H](C)O)C(=O)N[C@@H](C)C(=O)N[C@@H]([C@@H](C)O)C(=O)N1)[C@@H](C)O)C(C)C)C(=O)NCC(=O)N1CCC[C@H]1C(=O)N[C@H](C(=O)N[C@@H](CC(C)C)C(=O)N1CCC[C@H]1C(=O)N1CCC[C@H]1C(=O)N[C@H](C(=O)N[C@@H](CC(N)=O)C(=O)N[C@H](C(=O)NCC(=O)N[C@@H](CO)C(=O)N[C@@H](CC(N)=O)C(=O)N[C@H](C(=O)N[C@@H](Cc1ccc(O)cc1)C(N)=O)[C@@H](C)O)C(C)C)[C@@H](C)O)C(C)C", "note": "[amylin, Amylin]", "values": [{"measurement": "intracellular Ca2+ mobilisation response", "setting": "PB1 cell line [3]", "result": "unable to detect functional CTR response"}, {"measurement": "intracellular Ca2+ mobilisation response", "setting": "PB1 cell line [3]; listed as rAMY", "result": "Absence of intracellular calcium mobilization response"}, {"measurement": "cAMP response", "setting": "JK2 cell line; agonist 10^-12-10^-6 M", "result": "very weak response"}, {"measurement": "pEC50, cAMP accumulation", "setting": "JK2 cell line; CTR agonists, 37 °C, S.E.M.", "result": "5.9 ± 0.5"}, {"measurement": "metabolic reprogramming", "setting": "[4]", "result": "metabolic reprogramming (switch from glycolysis to oxidative phosphorylation)"}, {"measurement": "susceptibility to apoptosis", "setting": "[4]", "result": "increased susceptibility to apoptosis"}, {"measurement": "intracellular Ca2+ mobilisation response", "setting": "WK1 cell line [5]", "result": "unable to detect functional CTR response"}, {"measurement": "intracellular Ca2+ mobilisation response", "setting": "WK1 cell line [5]; listed as rAMY", "result": "Absence of intracellular calcium mobilization response"}, {"measurement": "intracellular Ca2+ mobilisation response", "setting": "SB2b cell line [6]", "result": "unable to detect functional CTR response"}, {"measurement": "intracellular Ca2+ mobilisation response", "setting": "SB2b cell line [6]; listed as rAMY", "result": "Absence of intracellular calcium mobilization response"}, {"measurement": "cAMP response to αCGRP, adrenomedullin (and weak amylin response)", "setting": "SB2b cell line [7]", "result": "Weak responses"}, {"measurement": "cAMP response", "setting": "WK1 cell line [8]", "result": "very weak response"}, {"measurement": "cAMP response", "setting": "PB1 cell line [9]; agonist 10^-12-10^-6 M", "result": "very weak response"}, {"measurement": "pEC50, cAMP accumulation", "setting": "PB1 cell line [9]; CTR agonists, 37 °C, S.E.M.", "result": "6.1 ± 0.5"}]}
{"compound": "CC[C@H](C)[C@H](NC(=O)[C@H](CCC(N)=O)NC(=O)[C@H](Cc1c[nH]cn1)NC(=O)[C@H](C)NC(=O)[C@H](CC(C)C)NC(=O)[C@H](CCCCN)NC(=O)[C@H](CCC(N)=O)NC(=O)[C@@H](NC(=O)[C@@H](NC(=O)[C@@H]1CSSC[C@H](NC(=O)CNC(=O)[C@H](Cc2ccccc2)NC(=O)[C@H](CO)NC(=O)[C@H](CCCNC(=N)N)NC(=O)[C@H](CC(C)C)NC(=O)CNC(=O)[C@H](CCC(N)=O)NC(=O)[C@H](Cc2ccccc2)NC(=O)[C@H](CC(N)=O)NC(=O)[C@H](CC(N)=O)NC(=O)[C@H](CCSC)NC(=O)[C@H](CO)NC(=O)[C@H](CCC(N)=O)NC(=O)[C@H](CCCNC(=N)N)NC(=O)[C@@H](N)Cc2ccc(O)cc2)C(=O)N[C@@H](CCCNC(=N)N)C(=O)N[C@@H](Cc2ccccc2)C(=O)NCC(=O)N[C@@H]([C@@H](C)O)C(=O)N1)[C@@H](C)O)C(C)C)C(=O)N[C@@H](Cc1ccc(O)cc1)C(=O)N[C@@H](CCC(N)=O)C(=O)N[C@@H](Cc1ccccc1)C(=O)N[C@H](C(=O)N[C@@H](CC(=O)O)C(=O)N[C@@H](CCCCN)C(=O)N[C@@H](CC(=O)O)C(=O)N[C@@H](CCCCN)C(=O)N[C@@H](CC(=O)O)C(=O)N[C@@H](CC(N)=O)C(=O)N[C@H](C(=O)N[C@@H](C)C(=O)N1CCC[C@H]1C(=O)N[C@@H](CCCNC(=N)N)C(=O)N[C@@H](CO)C(=O)N[C@@H](CCCCN)C(=O)N[C@H](C(=O)N[C@@H](CO)C(=O)N1CCC[C@H]1C(=O)N[C@@H](CCC(N)=O)C(=O)NCC(=O)N[C@@H](Cc1ccc(O)cc1)C(N)=O)[C@@H](C)CC)C(C)C)[C@@H](C)O", "note": "[AM, Adrenomedullin]", "values": [{"measurement": "Peptides rank order of potency (human)", "setting": "AMY3 (CTR + RAMP3)", "result": "sCT ≥ AMY > αCGRP > intermedin ≥ hCT > AM"}, {"measurement": "Peptides rank order of potency (human)", "setting": "AM1 (CLR + RAMP2)", "result": "AM > intermedin > α-CGRP, AMY > sCT"}, {"measurement": "Peptides rank order of potency (human)", "setting": "AMY1 (CTR + RAMP1)", "result": "sCT ≥ AMY ≥ αCGRP > intermedin ≥ hCT > AM"}, {"measurement": "cAMP response to αCGRP, adrenomedullin (and weak amylin response)", "setting": "SB2b cell line [7]", "result": "Weak responses"}, {"measurement": "Peptides rank order of potency (human)", "setting": "CTR", "result": "sCT ≥ hCT > AMY, αCGRP > AM, intermedin"}, {"measurement": "Peptides rank order of potency (human)", "setting": "AM2 (CLR + RAMP3)", "result": "AM ≥ intermedin ≥ α-CGRP > AMY > SCT"}, {"measurement": "Peptides rank order of potency (human)", "setting": "CGRP (CLR + RAMP1)", "result": "αCGRP > AM ≥ intermedin > AMY ≥ sCT"}]}
{"compound": "Amylin", "values": [{"measurement": "Peptides rank order of potency (human)", "setting": "AMY3 (CTR + RAMP3)", "result": "sCT ≥ AMY > αCGRP > intermedin ≥ hCT > AM"}, {"measurement": "Peptides rank order of potency (human)", "setting": "AM1 (CLR + RAMP2)", "result": "AM > intermedin > α-CGRP, AMY > sCT"}, {"measurement": "Peptides rank order of potency (human)", "setting": "AMY1 (CTR + RAMP1)", "result": "sCT ≥ AMY ≥ αCGRP > intermedin ≥ hCT > AM"}, {"measurement": "Peptides rank order of potency (human)", "setting": "CTR", "result": "sCT ≥ hCT > AMY, αCGRP > AM, intermedin"}, {"measurement": "Peptides rank order of potency (human)", "setting": "AM2 (CLR + RAMP3)", "result": "AM ≥ intermedin ≥ α-CGRP > AMY > SCT"}, {"measurement": "Peptides rank order of potency (human)", "setting": "CGRP (CLR + RAMP1)", "result": "αCGRP > AM ≥ intermedin > AMY ≥ sCT"}]}
